Activity calls are given as the source filed them. No cut-off for these calls is given here.
Columns and labels:
HepG2 [1] = assay: Induction of cell cycle arrest in human HepG2 cells assessed as accumulation of cells at 2N phase at 10 uM incubated for 24 hrs by PI staining based flow cytometry analysis (reference value: 26.0%); type: functional
Cell membrane [2] = assay: Induction of mitochondrial membrane potential loss in human HepG2 cells assessed as decrease in fluorescence at 10 uM measured after 48 hrs by Rhodamine 123 staining based flow cytometry (reference value: 66.8%); type: cell membranes; parameters: scale not given: the % may be the effect or the level left
HepG2 [3] = assay: Induction of cell cycle arrest in human HepG2 cells assessed as accumulation of cells at S phase at 5 uM incubated for 48 hrs by PI staining based flow cytometry analysis (reference value: 39.6%); type: functional
Cell membrane [4] = assay: Induction of mitochondrial membrane potential loss in human HepG2 cells assessed as decrease in fluorescence at 5 uM measured after 48 hrs by Rhodamine 123 staining based flow cytometry (reference value: 66.8%); type: cell membranes; parameters: scale not given: the % may be the effect or the level left
[5] = Upregulation of DDIT3 expression level in human HepG2 cells assessed as fold change by KEGG enrichment analysis; type: functional
Cell membrane [6] = assay: Induction of mitochondrial membrane potential loss in human HepG2 cells assessed as decrease in fluorescence at 10 uM measured after 12 hrs by Rhodamine 123 staining based flow cytometry (reference value: 66.8%); type: cell membranes; parameters: scale not given: the % may be the effect or the level left
HepG2 [7] = assay: Induction of cell cycle arrest in human HepG2 cells assessed as accumulation of cells at >G2/M phase at 5 uM incubated for 48 hrs by PI staining based flow cytometry analysis (reference value: 28.0%); type: functional
[8] = Upregulation of CDKN1A expression level in human HepG2 cells assessed as fold change by KEGG enrichment analysis; type: functional
HepG2 [9] = assay: Upregulation of p53 level in human HepG2 cells at 5 to 20 uM measured after 48 hrs by Western blot analysis; type: functional, cell-based; settings: dose 5-20 µM
[10] = Upregulation of IL1A expression level in human HepG2 cells assessed as fold change by KEGG enrichment analysis; type: functional
[11] = Apparent permeability of compound; type: ADME; settings: not told
4T1 = assay: Antiproliferative activity against mouse 4T1 cells incubated for 48 hrs by MTT assay; type: functional, cell-based; settings: 4T1, 48 h
[12] = Upregulation of SESN2 expression level in human HepG2 cells assessed as fold change by KEGG enrichment analysis; type: functional
[13] = Toxicity in Balb/c mouse assessed as effect on lung at 6 mg/kg, iv measured after 14 days by H and E staining based analysis; type: organism-based; settings: in vivo, 336 h, time 14 day
HepG2 [14] = assay: Induction of cell cycle arrest in human HepG2 cells assessed as accumulation of cells at >G2/M phase at 20 uM incubated for 48 hrs by PI staining based flow cytometry analysis (reference value: 28.0%); type: functional
[15] = Toxicity in Balb/c mouse assessed as effect on kidney at 6 mg/kg, iv measured after 14 days by H and E staining based analysis; type: organism-based; settings: in vivo, 336 h, time 14 day
HepG2 [16] = assay: Induction of apoptosis in human HepG2 cells assessed as viable cells at 5 uM incubated for 48 hrs by annexin V-FITC/PI staining based flow cytometry analysis (reference value: 99.3%); type: functional; settings: read-out: Activity
HepG2 [17] = assay: Induction of cell cycle arrest in human HepG2 cells assessed as accumulation of cells at <2N phase at 10 uM incubated for 12 hrs by PI staining based flow cytometry analysis (reference value: 0.027%); type: functional
[18] = Downregulation of RSPO3 expression level in human HepG2 cells assessed as fold change by KEGG enrichment analysis; type: functional
[19] = Upregulation of GADD45A expression level in human HepG2 cells assessed as fold change by KEGG enrichment analysis; type: functional
HepG2 [20] = assay: Induction of apoptosis in human HepG2 cells assessed as late apoptotic cells at 5 uM incubated for 48 hrs by annexin V-FITC/PI staining based flow cytometry analysis (reference value: 0.16%); type: functional
HepG2 [21] = assay: Induction of cell cycle arrest in human HepG2 cells assessed as assessed as accumulation of cells at G2/M phase at 10 uM incubated for 12 hrs by PI staining based flow cytometry analysis (reference value: 6.38%); type: functional
[22] = Upregulation of SYVN1 expression level in human HepG2 cells assessed as fold change by KEGG enrichment analysis; type: functional
[23] = Upregulation of GADD45B expression level in human HepG2 cells assessed as fold change by KEGG enrichment analysis; type: functional
HepG2 [24] = assay: Induction of cell cycle arrest in human HepG2 cells assessed as assessed as accumulation of cells at S phase at 10 uM incubated for 12 hrs by PI staining based flow cytometry analysis (reference value: 39.6%); type: functional
[25] = […] of CCND1 expression level in human HepG2 cells assessed as fold change by KEGG enrichment analysis; type: functional
[26] = target: Voltage-gated inwardly rectifying potassium channel KCNH2 (Homo sapiens, UniProt Q12809); assay: Inhibition of human ERG; type: toxicity
HepG2 [27] = assay: Induction of apoptosis in human HepG2 cells assessed as increase in number of apoptotic cells at 5 to 10 uM measured after 24 hrs by annexin V-mCherry staining based fluorescence microscopic analysis; type: functional, cell-based; settings: dose 5-10 µM
HepG2 [28] = assay: Induction of cell cycle arrest in human HepG2 cells assessed as assessed as accumulation of cells at 2N phase at 10 uM incubated for 12 hrs by PI staining based flow cytometry analysis (reference value: 26.0%); type: functional
Cell membrane [29] = assay: Induction of mitochondrial membrane potential loss in human HepG2 cells assessed as decrease in fluorescence at 10 uM measured after 24 hrs by Rhodamine 123 staining based flow cytometry (reference value: 66.8%); type: cell membranes; parameters: scale not given: the % may be the effect or the level left
HeLa = assay: Antiproliferative activity against human HeLa cells incubated for 48 hrs by MTT assay; type: functional, cell-based
[30] = Toxicity in Balb/c mouse assessed as effect on tumor at 6 mg/kg, iv measured after 14 days by H and E staining based analysis; type: organism-based; settings: in vivo, 336 h, time 14 day
[31] = Upregulation of SESN3 expression level in human HepG2 cells assessed as fold change by KEGG enrichment analysis; type: functional
HepG2 [32] = assay: Induction of cell cycle arrest in human HepG2 cells assessed as accumulation of cells at G2/M phase at 10 uM incubated for 24 hrs by PI staining based flow cytometry analysis (reference value: 6.38%); type: functional
[33] = Upregulation of DET1 expression level in human HepG2 cells assessed as fold change by KEGG enrichment analysis; type: functional
[34] = Downregulation of NOTCH3 expression level in human HepG2 cells assessed as fold change by KEGG enrichment analysis; type: functional
[35] = Toxicity in Balb/c mouse assessed as effect on body weight at 6 mg/kg, iv measured every two days for 14 days; type: organism-based; settings: in vivo, 336 h, time 14 day
HepG2 [36] = assay: Induction of morphological changes in human HepG2 cells assessed as appearance of luminous morphology at 40 uM measured after 12 to 24 hrs by fluorescence inverted microscopic analysis; type: functional, cell-based; settings: time 12-24 hrs
HepG2 [37] = assay: Induction of cell cycle arrest in human HepG2 cells assessed as accumulation of cells at S phase at 10 uM incubated for 48 hrs by PI staining based flow cytometry analysis (reference value: 39.6%); type: functional

Chain of Voltage-gated inwardly rectifying potassium channel KCNH2 (Q12809 whole entry): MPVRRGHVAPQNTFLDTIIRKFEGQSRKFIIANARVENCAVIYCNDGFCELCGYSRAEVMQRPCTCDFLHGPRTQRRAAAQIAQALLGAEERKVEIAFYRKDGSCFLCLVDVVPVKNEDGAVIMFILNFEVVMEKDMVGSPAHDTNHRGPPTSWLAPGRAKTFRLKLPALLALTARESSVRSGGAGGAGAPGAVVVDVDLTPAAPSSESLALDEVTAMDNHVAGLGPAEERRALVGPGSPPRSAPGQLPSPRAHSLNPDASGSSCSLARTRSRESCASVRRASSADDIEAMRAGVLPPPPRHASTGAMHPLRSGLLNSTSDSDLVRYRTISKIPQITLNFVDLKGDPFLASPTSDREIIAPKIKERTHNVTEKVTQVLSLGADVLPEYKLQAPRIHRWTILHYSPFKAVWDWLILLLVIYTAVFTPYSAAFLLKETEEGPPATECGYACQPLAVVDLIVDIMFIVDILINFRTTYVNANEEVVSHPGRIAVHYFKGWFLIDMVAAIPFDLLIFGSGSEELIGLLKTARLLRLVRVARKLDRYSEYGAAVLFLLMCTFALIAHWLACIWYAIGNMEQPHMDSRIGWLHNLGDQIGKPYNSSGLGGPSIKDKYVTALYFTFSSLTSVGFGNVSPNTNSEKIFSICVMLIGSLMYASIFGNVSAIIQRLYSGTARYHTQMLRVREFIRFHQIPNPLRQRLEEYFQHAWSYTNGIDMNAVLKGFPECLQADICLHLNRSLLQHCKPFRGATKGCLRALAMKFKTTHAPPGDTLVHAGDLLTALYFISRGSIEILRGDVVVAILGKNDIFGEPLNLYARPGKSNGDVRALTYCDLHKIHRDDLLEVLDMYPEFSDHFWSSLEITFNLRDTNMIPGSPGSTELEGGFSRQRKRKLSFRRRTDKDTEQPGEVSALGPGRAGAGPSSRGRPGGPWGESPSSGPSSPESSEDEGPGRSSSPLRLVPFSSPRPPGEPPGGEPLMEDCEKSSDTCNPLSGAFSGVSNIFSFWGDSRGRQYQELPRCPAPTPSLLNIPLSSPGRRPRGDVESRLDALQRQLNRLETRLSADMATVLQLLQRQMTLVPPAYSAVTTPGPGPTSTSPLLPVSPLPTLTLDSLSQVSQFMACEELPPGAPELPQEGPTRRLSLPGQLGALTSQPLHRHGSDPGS

For `CC(C)C[C@H]1NC(=O)[C@H]([C@@H](C)OCc2ccccc2)NC(=O)[C@H]2CCCN2C(=O)CN2C(=O)c3ccccc3[C@@]2(O)CN(Cc2ccccc2)C(=O)[C@H](Cc2ccccc2)NC(=O)[C@H]2CCCN2C(=O)[C@H](Cc2c[nH]c3ccccc23)NC1=O`, the Activity (HepG2 [1]) was 23.3%, the Activity (Cell membrane [2]) was 28.8% and the Activity (HepG2 [3]) was 12.3%. The Activity (Cell membrane [4]) was 41.6%, the “fold change (FC)” value [5] was 1.968 and the Activity (Cell membrane [6]) was 55.6%. The Activity (HepG2 [7]) was 2.76%, the “fold change (FC)” value [8] was 1.175 and the Activity (HepG2 [9]) was “Active”. For the same molecule, the “fold change (FC)” value [10] was 2.186, the Papp [11] was 0.416 ×10⁻⁶ cm/s and the IC50 (4T1) was 38.5 µM. The “fold change (FC)” value [12] was 2.86, the Activity [13] was “Non-Toxic” and the Activity (HepG2 [14]) was 1.12%. For the same molecule, the Activity [15] was “Non-Toxic”, the viability at 5 µM (HepG2 [16]) was 80.8% and the Activity (HepG2 [17]) was 36.2%. The “fold change (FC)” value [18] was -1.578, the “fold change (FC)” value [19] was 1.519 and the Activity (HepG2 [20]) was 2.4%. The Activity (HepG2 [21]) was 12.4%, the “fold change (FC)” value [22] was 1.048 and the “fold change (FC)” value [23] was 1.146. The Activity (HepG2 [24]) was 18.9%, the “fold change (FC)” value [25] was -1.18 and the “inhibition (INH)” value [26] was “Active”. The Activity (HepG2 [27]) was “Active”, the Activity (HepG2 [28]) was 27.8% and the Activity (Cell membrane [29]) was 45.4%. The IC50 (HeLa) was 16.9 µM, the Activity [30] was “Non-Toxic” and the “fold change (FC)” value [31] was 1.529. The Activity (HepG2 [32]) was 13%, the “fold change (FC)” value [33] was 1.448 and the “fold change (FC)” value [34] was -1.52. The Activity [35] was “Non-Toxic”, the Activity (HepG2 [36]) was “Active” and the Activity (HepG2 [37]) was 23.3%.
